Source: publication PMC6345161 (Journal of medicinal chemistry, 2018)

Columns and labels:
[1] = tested on: MRSA (ATCC BAA-44); test: MRSA proliferation assay; type: cell-based, Staphylococcus aureus
[2] = tested on: S. aureus (ATCC 25923); test: S. aureus proliferation assay; type: cell-based, Staphylococcus aureus
[3] = target: E. coli GroEL (Escherichia coli, UniProt P0A6F5); test: Isothermal titration calorimetry binding to GroEL; conditions: for T∆S: 20°C (293.15 K); for Stoichiometry n, GroELmonomer : Molecule: single-site binding model; for ∆G: calculated with Gibbs equation at 20°C
E. coli GroEL, sequence (P0A6F5 2-548): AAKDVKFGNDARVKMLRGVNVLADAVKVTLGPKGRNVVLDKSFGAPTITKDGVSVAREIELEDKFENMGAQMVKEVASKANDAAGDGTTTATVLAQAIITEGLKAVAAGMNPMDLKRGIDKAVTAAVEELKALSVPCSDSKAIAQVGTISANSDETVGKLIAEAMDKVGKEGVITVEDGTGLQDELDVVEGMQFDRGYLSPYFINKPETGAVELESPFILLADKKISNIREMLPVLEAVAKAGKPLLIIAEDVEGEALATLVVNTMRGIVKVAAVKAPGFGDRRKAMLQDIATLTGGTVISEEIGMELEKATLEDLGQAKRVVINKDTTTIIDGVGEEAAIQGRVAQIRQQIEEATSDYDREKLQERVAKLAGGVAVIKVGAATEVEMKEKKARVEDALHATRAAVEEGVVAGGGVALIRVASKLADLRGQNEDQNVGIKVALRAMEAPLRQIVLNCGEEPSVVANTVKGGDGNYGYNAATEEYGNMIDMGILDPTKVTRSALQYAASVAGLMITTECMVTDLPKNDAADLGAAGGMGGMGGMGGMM

[4] = tested on: MRSA strain (ATCC BAA-44); test: 12-day serial passage MRSA resistance assay; type: cell-based, Staphylococcus aureus; conditions: for MRSA resistance generation: 12 passages over 12 days
[5] = target: T1, native rhodanese (Bos taurus, UniProt P00586); test: Native Rho enzymatic reporter counter-screen; type: biochemical
T1 sequence (P00586 2-297 limits assumed): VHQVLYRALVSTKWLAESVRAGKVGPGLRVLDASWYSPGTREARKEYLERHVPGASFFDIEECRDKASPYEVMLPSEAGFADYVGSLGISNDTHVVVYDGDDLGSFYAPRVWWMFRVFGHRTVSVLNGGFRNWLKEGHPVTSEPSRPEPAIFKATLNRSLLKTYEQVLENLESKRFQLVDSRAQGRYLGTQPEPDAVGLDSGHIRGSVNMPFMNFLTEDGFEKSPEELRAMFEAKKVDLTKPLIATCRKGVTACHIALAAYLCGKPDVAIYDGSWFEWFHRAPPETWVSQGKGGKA

[6] = target: T2, native malate dehydrogenase (Sus scrofa, UniProt P00346); test: Native MDH enzymatic reporter counter-screen; type: biochemical
T2 sequence (P00346 25-338): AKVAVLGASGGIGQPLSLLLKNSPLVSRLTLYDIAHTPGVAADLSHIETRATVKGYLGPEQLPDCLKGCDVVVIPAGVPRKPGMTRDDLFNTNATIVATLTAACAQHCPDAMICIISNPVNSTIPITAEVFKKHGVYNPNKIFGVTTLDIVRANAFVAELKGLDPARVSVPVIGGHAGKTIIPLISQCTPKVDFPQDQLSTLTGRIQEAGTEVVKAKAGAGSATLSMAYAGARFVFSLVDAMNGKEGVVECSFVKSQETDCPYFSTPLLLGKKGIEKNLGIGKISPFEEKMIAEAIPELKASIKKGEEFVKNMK

[7] = tested on: ESKAPE pathogens; conditions: cited from earlier work

Compound: O=S(=O)(Nc1ccc(-c2nc3cc(NS(=O)(=O)c4ccc(Cl)cc4)ccc3o2)cc1)c1ccc(Cl)cc1 [2c-p]
- inhibition of MRSA proliferation [1]: most potent and selective inhibitors of MRSA proliferation

Compound: NCc1ccc(S(=O)(=O)Nc2ccc3oc(-c4ccc(NS(=O)(=O)c5ccc(Cl)s5)cc4)nc3c2)cc1 [20L]
- inhibition of S. aureus proliferation [2]: only moderately active
- inhibition of MRSA proliferation [1]: only moderately active
- Stoichiometry n, Molecule : GroELmonomer ([3]; ITC, 20°C): 1.67 ± 0.39
- ∆H ([3]; ITC, 20°C): -8.30 ± 0.52 kcal/mol
- ∆S ([3]; ITC, 20°C): 0.003 ± 0.002 kcal/molK
- T∆S ([3]; ITC): 0.84 ± 0.55 kcal/mol
- Stoichiometry n, GroELmonomer : Molecule ([3]; ITC, 20°C): 0.6 ± 0.14
- Stoichiometry n, Molecule : GroELoligomer ([3]; ITC, 20°C, molecules per GroEL tetradecamer): 23.3 ± 5.4
- ∆G [3]: -9.14 ± 0.06 kcal/mol

Compound: NCc1ccc(S(=O)(=O)Nc2ccc(-c3nc4cc(NS(=O)(=O)c5ccc(Cl)s5)ccc4o3)cc2)cc1 [20R]
- inhibition of S. aureus proliferation [2]: only moderately active
- inhibition of MRSA proliferation [1]: only moderately active
- Stoichiometry n, Molecule : GroELmonomer ([3]; ITC, 20°C): 1.30 ± 0.27
- ∆H ([3]; ITC, 20°C): -9.78 ± 0.80 kcal/mol
- ∆S ([3]; ITC, 20°C): 0.001 ± 0.003 kcal/molK
- T∆S ([3]; ITC): 0.20 ± 0.82 kcal/mol
- Stoichiometry n, GroELmonomer : Molecule ([3]; ITC, 20°C): 0.77 ± 0.16
- ∆G [3]: -9.98 ± 0.26 kcal/mol
- MRSA resistance generation [4]: unable to generate resistance

Compound: O=[N+]([O-])c1cc(S(=O)(=O)Nc2ccc(-c3nc4cc(NS(=O)(=O)c5ccc(Cl)s5)ccc4o3)cc2)ccc1Cl [28R]
- inhibition of native rhodanese [5]: only to a minor extent
- inhibition of native malate dehydrogenase [6]: only to a minor extent
- MRSA resistance generation [4]: rapidly developed resistance
- sensitivity of resistant MRSA after culture without inhibitor ([4]; two days without inhibitors (24 h agar, 24 h liquid)): regained sensitivity

Compound: Cc1ccc(S(=O)(=O)Nc2ccc(-c3nc4ccc(NS(=O)(=O)c5ccc(C)cc5)cc4[nH]3)cc2)cc1 [compound 1]
- antibacterial effects against ESKAPE pathogens [7]: no antibacterial effects

Compound: O=S(=O)(Nc1ccc(-c2nc3cc(NS(=O)(=O)c4cccs4)ccc3o2)cc1)c1cccs1 [compound 6]
- inhibition of MRSA proliferation [1]: most potent and selective inhibitors of MRSA proliferation

Compound: CN[C@H](CC(C)C)C(=O)N[C@H]1C(=O)N[C@@H](CC(N)=O)C(=O)N[C@H]2C(=O)N[C@H]3C(=O)N[C@H](C(=O)N[C@H](C(=O)O)c4cc(O)cc(O)c4-c4cc3ccc4O)[C@H](O)c3ccc(c(Cl)c3)Oc3cc2cc(c3O[C@@H]2O[C@H](CO)[C@@H](O)[C@H](O)[C@H]2O[C@H]2C[C@](C)(N)[C@H](O)[C@H](C)O2)Oc2ccc(cc2Cl)[C@H]1O [vancomycin, reference compound]
- MRSA resistance generation [4]: retained sensitivity
